Data from patent publication US20100184699A1, “Peptide Derived From Prostate-Related Protein As Cancer Vaccine Candidate For Prostate Cancer Patient Who Is Positive For Hla-A3 Super-Type Allele Molecule” (priority 2005, published 2010).

Tested on: peptide-specific IgG in plasma of prostate cancer patients and healthy donors
Test: Detection of peptide-specific IgG in plasma by ELISA
Type: binding, human
Details: for IgG reactive to peptide in plasma: 1:100-diluted plasma
[1] = Prostate cancer patient 20, A33
[2] = Prostate cancer patient 12, A11
[3] = Prostate cancer patient 14, A33
[4] = Prostate cancer patient 17, A33
[5] = Prostate cancer patient 19, A33
[6] = Prostate cancer patient 13, A11

Substance | IgG reactive to peptide in plasma, Total (positive/tested) (Healthy donors) | IgG reactive to peptide in plasma, Total (positive/tested) (Prostate cancer patients) | IgG reactive to peptide in plasma (Prostate cancer patient 6, A31) | IgG reactive to peptide in plasma [1] | IgG reactive to peptide in plasma (Prostate cancer patient 9, A11) | IgG reactive to peptide in plasma [3] | further results
PAP 18-28 (FLFLLFFWLDR; UniProt P15309 18-28, looked up, fragment) | 1/9 | 0/20 |  |  |  |  | IgG reactive to peptide in plasma (Healthy donor 12, A31): + (IgG reactive to a corresponding peptide was judged to be positive when a difference of the optical density (OD) in a 1:100-diluted plasma was more than 100)
RIYNVIGTLR [PSMA 354-363] | 0/9 | 2/20 | + (IgG reactive to a corresponding peptide was judged to be positive when a difference of the optical density (OD) in a 1:100-diluted plasma was more than 100) | + (IgG reactive to a corresponding peptide was judged to be positive when a difference of the optical density (OD) in a 1:100-diluted plasma was more than 100) |  |  | 
VTKFMLCAGR (PSA 192-201) [PSA-derived peptide] | 0/9 | 1/20 |  |  |  |  | IgG reactive to peptide in plasma (Prostate cancer patient 10, A11): + (IgG reactive to a corresponding peptide was judged to be positive when a difference of the optical density (OD) in a 1:100-diluted plasma was more than 100)
TLRGAVEPDR [PSMA 361-370] | 0/9 | 12/20 | + (IgG reactive to a corresponding peptide was judged to be positive when a difference of the optical density (OD) in a 1:100-diluted plasma was more than 100) | + (IgG reactive to a corresponding peptide was judged to be positive when a difference of the optical density (OD) in a 1:100-diluted plasma was more than 100) | + (IgG reactive to a corresponding peptide was judged to be positive when a difference of the optical density (OD) in a 1:100-diluted plasma was more than 100) | + (IgG reactive to a corresponding peptide was judged to be positive when a difference of the optical density (OD) in a 1:100-diluted plasma was more than 100) | IgG reactive to peptide in plasma (Prostate cancer patient 2, A31): + (IgG reactive to a corresponding peptide was judged to be positive when a difference of the optical density (OD) in a 1:100-diluted plasma was more than 100); IgG reactive to peptide in plasma (Prostate cancer patient 4, A31): + (IgG reactive to a corresponding peptide was judged to be positive when a difference of the optical density (OD) in a 1:100-diluted plasma was more than 100); IgG reactive to peptide in plasma (Prostate cancer patient 7, A11): + (IgG reactive to a corresponding peptide was judged to be positive when a difference of the optical density (OD) in a 1:100-diluted plasma was more than 100); IgG reactive to peptide in plasma (Prostate cancer patient 8, A11): + (IgG reactive to a corresponding peptide was judged to be positive when a difference of the optical density (OD) in a 1:100-diluted plasma was more than 100); IgG reactive to peptide in plasma [2]: + (IgG reactive to a corresponding peptide was judged to be positive when a difference of the optical density (OD) in a 1:100-diluted plasma was more than 100); IgG reactive to peptide in plasma [4]: + (IgG reactive to a corresponding peptide was judged to be positive when a difference of the optical density (OD) in a 1:100-diluted plasma was more than 100); IgG reactive to peptide in plasma (Prostate cancer patient 18, A33): + (IgG reactive to a corresponding peptide was judged to be positive when a difference of the optical density (OD) in a 1:100-diluted plasma was more than 100); IgG reactive to peptide in plasma [5]: + (IgG reactive to a corresponding peptide was judged to be positive when a difference of the optical density (OD) in a 1:100-diluted plasma was more than 100)
RNKSVILLGR (PSA 68-77) [PSA-derived peptide] | 0/9 | 0/20 |  |  |  |  | 
FLLFFWLDR [PAP 20-28] | 0/9 | 1/20 |  |  |  | + (IgG reactive to a corresponding peptide was judged to be positive when a difference of the optical density (OD) in a 1:100-diluted plasma was more than 100) | 
VTLVFRHGDR (PAP 38-47) [PAP-derived peptide] | 1/9 | 1/20 |  |  | + (IgG reactive to a corresponding peptide was judged to be positive when a difference of the optical density (OD) in a 1:100-diluted plasma was more than 100) |  | IgG reactive to peptide in plasma (Healthy donor 8, A31): + (IgG reactive to a corresponding peptide was judged to be positive when a difference of the optical density (OD) in a 1:100-diluted plasma was more than 100)
EYFVEMYYR (PAP 324-332) [PAP-derived peptide] | 0/9 | 1/20 |  |  |  | + (IgG reactive to a corresponding peptide was judged to be positive when a difference of the optical density (OD) in a 1:100-diluted plasma was more than 100) | 
PSMA 370-378 (RYVILGGHR; PSMA 370-378) | 0/9 | 2/20 |  | + (IgG reactive to a corresponding peptide was judged to be positive when a difference of the optical density (OD) in a 1:100-diluted plasma was more than 100) |  |  | IgG reactive to peptide in plasma (Prostate cancer patient 5, A31): + (IgG reactive to a corresponding peptide was judged to be positive when a difference of the optical density (OD) in a 1:100-diluted plasma was more than 100)
VYIRSTDVDR (PAP 102-111) [PAP-derived peptide] | 0/9 | 2/20 |  |  |  | + (IgG reactive to a corresponding peptide was judged to be positive when a difference of the optical density (OD) in a 1:100-diluted plasma was more than 100) | IgG reactive to peptide in plasma [6]: + (IgG reactive to a corresponding peptide was judged to be positive when a difference of the optical density (OD) in a 1:100-diluted plasma was more than 100)
PSMA 590-698 | 0/9 | 11/20 | + (IgG reactive to a corresponding peptide was judged to be positive when a difference of the optical density (OD) in a 1:100-diluted plasma was more than 100) | + (IgG reactive to a corresponding peptide was judged to be positive when a difference of the optical density (OD) in a 1:100-diluted plasma was more than 100) | + (IgG reactive to a corresponding peptide was judged to be positive when a difference of the optical density (OD) in a 1:100-diluted plasma was more than 100) | + (IgG reactive to a corresponding peptide was judged to be positive when a difference of the optical density (OD) in a 1:100-diluted plasma was more than 100) | IgG reactive to peptide in plasma (Prostate cancer patient 4, A31): + (IgG reactive to a corresponding peptide was judged to be positive when a difference of the optical density (OD) in a 1:100-diluted plasma was more than 100); IgG reactive to peptide in plasma (Prostate cancer patient 5, A31): + (IgG reactive to a corresponding peptide was judged to be positive when a difference of the optical density (OD) in a 1:100-diluted plasma was more than 100); IgG reactive to peptide in plasma (Prostate cancer patient 8, A11): + (IgG reactive to a corresponding peptide was judged to be positive when a difference of the optical density (OD) in a 1:100-diluted plasma was more than 100); IgG reactive to peptide in plasma [2]: + (IgG reactive to a corresponding peptide was judged to be positive when a difference of the optical density (OD) in a 1:100-diluted plasma was more than 100); IgG reactive to peptide in plasma [6]: + (IgG reactive to a corresponding peptide was judged to be positive when a difference of the optical density (OD) in a 1:100-diluted plasma was more than 100); IgG reactive to peptide in plasma [4]: + (IgG reactive to a corresponding peptide was judged to be positive when a difference of the optical density (OD) in a 1:100-diluted plasma was more than 100); IgG reactive to peptide in plasma [5]: + (IgG reactive to a corresponding peptide was judged to be positive when a difference of the optical density (OD) in a 1:100-diluted plasma was more than 100)
HIHSTNEVTR (PSMA 345-354) [PSMA-derived peptide] | 0/9 | 11/20 | + (IgG reactive to a corresponding peptide was judged to be positive when a difference of the optical density (OD) in a 1:100-diluted plasma was more than 100) | + (IgG reactive to a corresponding peptide was judged to be positive when a difference of the optical density (OD) in a 1:100-diluted plasma was more than 100) | + (IgG reactive to a corresponding peptide was judged to be positive when a difference of the optical density (OD) in a 1:100-diluted plasma was more than 100) |  | IgG reactive to peptide in plasma (Prostate cancer patient 2, A31): + (IgG reactive to a corresponding peptide was judged to be positive when a difference of the optical density (OD) in a 1:100-diluted plasma was more than 100); IgG reactive to peptide in plasma (Prostate cancer patient 4, A31): + (IgG reactive to a corresponding peptide was judged to be positive when a difference of the optical density (OD) in a 1:100-diluted plasma was more than 100); IgG reactive to peptide in plasma (Prostate cancer patient 5, A31): + (IgG reactive to a corresponding peptide was judged to be positive when a difference of the optical density (OD) in a 1:100-diluted plasma was more than 100); IgG reactive to peptide in plasma [2]: + (IgG reactive to a corresponding peptide was judged to be positive when a difference of the optical density (OD) in a 1:100-diluted plasma was more than 100); IgG reactive to peptide in plasma [6]: + (IgG reactive to a corresponding peptide was judged to be positive when a difference of the optical density (OD) in a 1:100-diluted plasma was more than 100); IgG reactive to peptide in plasma (Prostate cancer patient 16, A33): + (IgG reactive to a corresponding peptide was judged to be positive when a difference of the optical density (OD) in a 1:100-diluted plasma was more than 100); IgG reactive to peptide in plasma [4]: + (IgG reactive to a corresponding peptide was judged to be positive when a difference of the optical density (OD) in a 1:100-diluted plasma was more than 100); IgG reactive to peptide in plasma [5]: + (IgG reactive to a corresponding peptide was judged to be positive when a difference of the optical density (OD) in a 1:100-diluted plasma was more than 100)
